Series [1] addresses nAChR formed by the α7 subunit isoform (Rattus norvegicus, UniProt Q05941). Nature of the series: biochemical. The class given is binding.
Series [2] addresses nAChRs comprised of α4 and β2 subunits (Rattus norvegicus, UniProt P09483+P12390). Nature of the series: In vitro inhibition of 3H-cytisine binding. The procedure: The predominant subtype with high affinity for nicotine is comprised of α4 and β2 subunits. nAChRs of the latter type can selectively be labelled by the nicotine agonist ^3H-cytisine.
Tissue Preparation: Preparations are performed at 0-4° C. unless otherwise indicated. […] The homogenate is centrifuged at 27,000×g for 10 min. The supernatant is discarded and the pellet is resuspended in fresh buffer and centrifuged a second time. The final pellet is resuspended in fresh buffer (35 ml per g of original tissue) and used for binding assays.
Assay: Aliquots of 500 μl homogenate are added to 25 μl of test solution and 25 μl of ^3H-cytisine (1 nM, final concentration), mixed and incubated for 90 min at 2° C. Non-specific binding is determined using (−)-nicotine (100 μM, final concentration). After incubation the samples are added 5 ml of ice-cold buffer and poured directly onto Whatman GF/C glass fibre filters under suction and immediately washed with 2×5 ml ice-cold buffer. The amount of radioactivity on the filters is determined by conventional liquid scintillation counting. Specific binding is total binding minus non-specific binding.

Series [3] deals with T1, neuronal nicotinic receptors (α4β2 subtype high affinity site) (Rattus norvegicus, UniProt P09483+P12390).
T1 construct: The forebrain (÷cerebellum) from a male Wistar rat (150-250 g) is homogenized; from tissue; host or cells: rat forebrain (without cerebellum) membrane homogenate
As to the kind of experiment: In vitro inhibition of 3H-epibatidin binding. The procedure: The high affinity binding site for ^3H-epibatidin is most certainly binding to the α4β2 subtype of nicotinic receptors. The identity of the low affinity site is still unknown; does it represent a second nicotinic receptor or a second site in the same receptor.
Tissue preparation: Preparations are performed at 0-4° C. unless otherwise indicated. The forebrain (÷cerebellum) from a male Wistar rat (150-250 g) is homogenized for 10-20 sec in 20 ml Tris, HCl (50 mM, pH 7.4) using an Ultra-Turrax homogenizer. The tissue suspension is centrifuged at 27,000×g for 10 min. The supernatant is discarded and the pellet is washed three times by centrifugation at 27,000×g for 10 min in 20 ml fresh buffer, and the final pellet is resuspended in fresh buffer (400 ml per g of original tissue) and used for binding assays.
Assay: Aliquots of 2.0 ml homogenate are added to 0.100 ml of test solution and 0.100 ml of ^3H-epibatidin (0.3 nM, final concentration), mixed and incubated for 60 min at room temperature. Non-specific binding is determined using (−)-nicotine (30 μM, final concentration). After incubation the samples are poured directly onto Whatman GF/C glass fibre filters (presoaked in 0.1% PEI for at least 20 min) under suction and immediately washed with 2×5 ml ice-cold buffer. The amount of radioactivity on the filters is determined by conventional liquid scintillation counting. Specific binding is total binding minus non-specific binding.

Structures are written as SMILES. Where a name gives a salt, the structure may show the parent alone. Read-outs that look alike come from different tables or passages of the source. Where only a bound is given, the exact number is not on record here.

nAChR formed by the α7 subunit isoform, sequence (Q05941 23-502): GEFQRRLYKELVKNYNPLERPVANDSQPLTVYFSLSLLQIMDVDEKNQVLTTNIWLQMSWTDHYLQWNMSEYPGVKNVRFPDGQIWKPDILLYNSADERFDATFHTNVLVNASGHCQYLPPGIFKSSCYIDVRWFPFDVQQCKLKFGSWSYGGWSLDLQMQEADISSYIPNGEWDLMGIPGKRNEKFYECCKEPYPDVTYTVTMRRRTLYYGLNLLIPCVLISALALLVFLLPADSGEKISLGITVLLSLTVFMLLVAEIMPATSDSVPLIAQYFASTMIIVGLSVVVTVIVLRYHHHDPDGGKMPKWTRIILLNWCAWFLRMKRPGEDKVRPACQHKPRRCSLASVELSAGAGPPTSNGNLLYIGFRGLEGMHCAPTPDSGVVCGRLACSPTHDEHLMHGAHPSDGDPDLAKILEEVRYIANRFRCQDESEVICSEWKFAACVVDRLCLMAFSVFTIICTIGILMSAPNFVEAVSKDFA
nAChRs comprised of α4 and β2 subunits, sequence (P09483 31-630): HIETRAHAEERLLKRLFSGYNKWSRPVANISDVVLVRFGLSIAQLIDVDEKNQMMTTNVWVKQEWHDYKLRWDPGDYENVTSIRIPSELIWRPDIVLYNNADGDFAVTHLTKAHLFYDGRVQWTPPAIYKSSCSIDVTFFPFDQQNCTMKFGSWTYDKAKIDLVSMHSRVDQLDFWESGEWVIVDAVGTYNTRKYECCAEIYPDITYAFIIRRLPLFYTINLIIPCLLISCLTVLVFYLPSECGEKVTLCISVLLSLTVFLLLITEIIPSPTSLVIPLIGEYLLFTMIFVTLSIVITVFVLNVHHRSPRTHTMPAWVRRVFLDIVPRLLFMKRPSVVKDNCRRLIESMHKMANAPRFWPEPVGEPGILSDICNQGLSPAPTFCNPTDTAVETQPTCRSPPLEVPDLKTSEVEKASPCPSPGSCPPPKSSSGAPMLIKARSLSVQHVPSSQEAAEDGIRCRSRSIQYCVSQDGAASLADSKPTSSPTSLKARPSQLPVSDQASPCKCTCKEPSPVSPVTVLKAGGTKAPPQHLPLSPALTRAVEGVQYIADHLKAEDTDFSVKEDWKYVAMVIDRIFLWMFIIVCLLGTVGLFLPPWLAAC
nAChRs comprised of α4 and β2 subunits, sequence (P12390 25-500): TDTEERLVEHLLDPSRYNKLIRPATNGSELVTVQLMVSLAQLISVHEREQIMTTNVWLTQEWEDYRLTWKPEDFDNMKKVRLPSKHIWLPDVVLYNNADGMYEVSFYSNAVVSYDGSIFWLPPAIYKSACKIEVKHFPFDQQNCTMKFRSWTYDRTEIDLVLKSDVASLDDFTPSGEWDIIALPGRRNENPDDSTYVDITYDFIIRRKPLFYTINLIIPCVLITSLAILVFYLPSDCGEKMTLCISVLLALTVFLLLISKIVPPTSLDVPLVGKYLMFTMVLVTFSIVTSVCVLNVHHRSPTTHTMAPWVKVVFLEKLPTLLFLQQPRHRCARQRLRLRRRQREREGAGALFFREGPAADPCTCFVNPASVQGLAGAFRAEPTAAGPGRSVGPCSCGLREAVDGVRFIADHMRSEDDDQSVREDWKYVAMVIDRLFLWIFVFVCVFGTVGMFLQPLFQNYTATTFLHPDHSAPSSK
T1 sequence (P09483 31-630): as the sequence (P09483 31-630) above
T1 sequence (P12390 25-500): as the sequence (P12390 25-500) above

Consider `CCOc1cncc(N2CCN(C)CC2)c1` [Compound 7A, 1-(5-Ethoxy-3-pyridyl)-4-methyl-piperazine], for which the half-maximal inhibitory concentration (IC50) was greater than 30000 nM in series [1], 6 nM in series [2] and 90 nM in series [3].
In the case of `Clc1ccc(N2CCCNCC2)nn1` [Compound 1K, 1-(6-Chloro-3-pyridazinyl)-homopiperazine], the half-maximal inhibitory concentration (IC50) in series [1] was determined as 1400 nM; in series [2], 10 nM; in series [3] it was 60 nM.
`COc1cncc(N2CCCN(C)CCC2)c1` [Compound 11A]: the IC50 in series [3] (rat forebrain homogenate, 0.3 nM 3H-epibatidin, 60 min at room temperature, read-out: 3H-epibatidin IC50) was determined as 1200 nM.
In the case of `COCCOc1cncc(N2CCCNCC2)c1` [Compound 5H, 1-(5-Methoxyethoxy-3-pyridyl)-homopiperazine], the values for the concentration for half-maximal inhibition (IC50) in series [1], in series [2] and in series [3] were 19000 nM, 2 nM and 20 nM, respectively.
As for `COc1cncc(N2CCCNC(C)CC2)c1` (centres unmarked) [Compound 11A], the IC50 in series [1] is greater than 30000 nM; in series [2], 40 nM.
Take `c1cncc(N2CCCNCC2)c1` [Compound 1F, 1-(3-Pyridyl)-homopiperazine]: the IC50 stood at 2 nM in series [2] and 5 nM in series [3].
As to `CN1CCN(c2cncc(-c3ccccc3)c2)CC1` (as salt: fumaric acid salt) [Compound 6A, 4-Methyl-1-(5-phenyl-3-pyridyl)-piperazine], the melting point lay in the range of 179 to 180 °C.
On the same count and under the same terms, next, `c1ccc2c(N3CCCNCC3)cncc2c1` (as salt: fumaric acid salt): 160 to 162 °C; `CCCCCCOc1cncc(N2CCCN(C)CC2)c1` (as salt: fumaric acid salt) [Compound 11E, 1-(5-Hexyloxy-3-pyridyl)-4-methyl-homopiperazine]: 128.7 to 130.8 °C; `COc1cncc(N2CCNCC2)c1` (as salt: fumaric acid salt) [Compound 3B, 1-(5-Methoxy-3-pyridyl)-piperazine]: 168.5 to 170.5 °C.
The compound `Clc1cncc(N2CCCNCC2)n1` (as salt: fumaric acid salt) [Compound 3K, 1-(6-Chloro-2-pyrazinyl)-homopiperazine] returned a melting point of 180 to 181 °C.
Regarding `C=COc1cncc(N2CCN(C)CC2)c1` (as salt: fumaric acid salt), the melting point is 136.4 to 138.2 °C.
The same measure, in the same setting: next, `COc1cc(N2CCCNCC2)cnc1OC` (as salt: fumaric acid salt): 150 to 152 °C; `Clc1nc2ccccc2nc1N1CCCNCC1` (as salt: fumaric acid salt): 136.2 to 139.9 °C; `c1ccc2nc(N3CCCNCC3)cnc2c1` (as salt: fumaric acid salt) [Compound 2L, 1-(2-Quinoxalinyl)-homopiperazine]: 177 to 180 °C.
On the same count and under the same terms, next, `CCOc1cncc(N2CCN(CC)CC2)c1` (as salt: fumaric acid salt) [Compound 9D, 1-(5-Ethoxy-3-pyridyl)-4-ethyl-piperazine]: 144.8 to 145.9 °C; `CCOCCOc1cncc(N2CCCNCC2)c1` (as salt: fumaric acid salt): 139.3 to 140.4 °C; `CN1CCN(c2cccnc2)CC1` (as salt: fumaric acid salt) [Compound 1A, 4-Methyl-1-(3-pyridyl)-piperazine]: 144.5 to 145.9 °C.
Take `CCOc1cncc(N2CCNCC2)c1` (as salt: fumaric acid salt) [Compound 1D, 1-(5-Ethoxy-3-pyridyl)piperazine]: the melting point lay within 160 to 161.2 °C.
As for `CCCCCCCOc1cncc(N2CCCNCC2)c1` (as salt: fumaric acid salt), the melting point is 132.8 to 136.6 °C.
The same measure, in the same setting: the figure for `Brc1ccc(N2CCCNCC2)cn1` (as salt: fumaric acid salt) [Compound 8K, 1-(6-Bromo-3-pyridyl)-homopiperazine] is 164 to 166 °C; for `CN1CCCN(c2ccc(-c3ccccc3)nn2)CC1` (as salt: fumaric acid salt) it is 185 to 186 °C; for `CN1CCCN(c2cncc(OCC3CCCCC3)c2)CC1` (as salt: fumaric acid salt) [Compound 14E, 1-(5-Cyclohexylmethoxy-3-pyridyl)-4-methyl-homopiperazine] it is 160.4 to 162 °C.
Same read-out and setting: the figure for `CCCCCOc1cncc(N2CCCNCC2)c1` (as salt: fumaric acid salt) is 155.5 to 156.7 °C.
The compound `CN1CCN(c2cccnc2)CC1` [Compound 1A, 4-Methyl-1-(3-pyridyl)-piperazine] showed an IC50 in series [1] of 6800 nM.
Take `CCOc1cncc(N2CCN(C)CC2)c1` (as salt: fumaric acid salt) [Compound 7A, 1-(5-Ethoxy-3-pyridyl)-4-methyl-piperazine]: the melting point was in the range of 162.2 to 163.7 °C.
Consider `C=COc1cncc(N2CCNCC2)c1` (as salt: fumaric acid salt), for which the melting point lay in the range of 136.4 to 138.2 °C.
Take `CN1CCCN(c2cncc(OCC3CC3)c2)CC1` (as salt: fumaric acid salt) [Compound 9E, 1-(5-Cyclopropylmethoxy-3-pyridyl)-4-methyl-homopiperazine]: the melting point lay in the range of 160.4 to 161.9 °C.
The same measure, in the same setting: the figure for `c1ccc2ncc(N3CCNCC3)cc2c1` is 87.7 to 88.5 °C; for `Clc1cncc(N2CCCNCC2)c1` (as salt: fumaric acid salt) it is 144.4 to 146.6 °C; for `c1cncc(-c2cncc(N3CCCNCC3)c2)c1` (as salt: fumaric acid salt) it is 160 to 162 °C.
On the same count and under the same terms, the figure for `c1cncc(N2CCCNCC2)c1` (as salt: fumaric acid salt) [Compound 1F, 1-(3-Pyridyl)-homopiperazine] is 172.1 to 172.9 °C.
`Brc1cncc(N2CCCNCC2)c1` (as salt: fumaric acid salt) yielded a melting point of 180.7 to 185.4 °C.
On the same count and under the same terms, the figure for `C/C=C/Oc1cncc(N2CCCN(C)CC2)c1` (as salt: fumaric acid salt) [Compound 17E, trans-4-Methyl-1-(5-propyl-1-en-oxy-3-pyridyl)-homopiperazine] is 126 to 128 °C.
Consider `c1ccc(-c2ccc(N3CCCNCC3)nn2)cc1` (as salt: fumaric acid salt), for which the melting point fell in the range of 187 to 189 °C.
On the same count and under the same terms, the figure for `CN1CCN(c2cncc(Cl)c2)CC1` (as salt: fumaric acid salt) [Compound 5A, 1-(5-Chloro-3-pyridyl)-4-Methyl-piperazine] is 162 to 163 °C; for `Oc1cccc(N2CCCNCC2)c1` (as salt: fumaric acid salt) it is 165 °C (dec.); for `c1ccc(-c2cncc(N3CCCNCC3)c2)cc1` (as salt: fumaric acid salt) [Compound 2H, 1-(5-Phenyl-3-pyridyl)-homopiperazine] it is 185 to 186 °C.
Still for that read-out and setting: next, `COc1cncc(N2CCCNCCC2)c1` (as salt: fumaric acid salt) [Compound 6B, 1-(5-Methoxy-3-pyridyl)-1,5-diazacyclooctane]: 158 to 160 °C.
In the case of `CN1CCCN(c2cnc3ccccc3c2)CC1` (as salt: fumaric acid salt) [Compound 2E, 4-Methyl-1-(3-quinolinyl)-homopiperazine], the melting point lay in the range of 170 to 171 °C.
For `c1ncc(N2CCCNCC2)cc1OC1CCCC1` (as salt: fumaric acid salt), the melting point was 148 to 150 °C.
Still for that read-out and setting: next, `c1cc(N2CCCC2)ncc1N1CCCNCC1` (as salt: fumaric acid salt): 148.6 to 150.5 °C.
On the same count and under the same terms, next, `COc1cccc(N2CCCNCC2)c1` (as salt: fumaric acid salt): 164.1 to 165.7 °C; `Clc1ccc(N2CCCNCC2)cn1`: 165 to 167 °C; `CCCOc1cncc(N2CCCN(C)CC2)c1` (as salt: fumaric acid salt) [Compound 10E, 4-Methyl-1-(5-propyloxy-3-pyridyl)-homopiperazine]: 148.8 to 153.5 °C.

One may read the IC50 as the midpoint of a concentration-inhibition curve. A word on the melting point: it is the temperature, or range, at which the solid turns liquid.

The values above are taken from patent publication US6897219B2, “Heteroaryl diazacycloalkanes, their preparation and use” (priority 1997, dated 2005).
